According to US10800792B2, “Inhibitors of Bruton's tyrosine kinase and method of their use” (JANSSEN PHARMACEUTICA NV, priority 2015, dated 2020):

target: unphosphorylated-BTK kinase domain (UP-BTK), GST-tagged human BTK (389-659aa) (Homo sapiens (Human), UniProt Q06187); assay: BTK kinase Lanthascreen binding assay; details: Lanthascreen tracer competition, 60 minutes incubation; pIC50 = negative log of the IC50 in molar
Method in brief: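 A fluorescent tracer is bound to unphosphorylated BTK; test compound is added to compete it off; the Lanthascreen signal is read and IC50 is fitted, then reported as its negative log in molar.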

Sequence of unphosphorylated-BTK kinase domain (UP-BTK), GST-tagged human BTK (389-659aa) (Q06187 389-659): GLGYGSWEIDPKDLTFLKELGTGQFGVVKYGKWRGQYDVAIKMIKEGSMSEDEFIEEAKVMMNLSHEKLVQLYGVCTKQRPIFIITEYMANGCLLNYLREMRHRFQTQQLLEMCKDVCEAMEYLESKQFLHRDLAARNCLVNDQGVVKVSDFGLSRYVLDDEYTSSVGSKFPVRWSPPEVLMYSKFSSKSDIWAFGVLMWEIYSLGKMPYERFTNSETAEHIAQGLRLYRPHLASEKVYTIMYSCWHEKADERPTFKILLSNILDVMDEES

SMILES | BTK_I_binding pIC50
C=CC(=O)N1CCC[C@@H](NC(=O)c2sc3nccc4c3c2NC(=O)N4c2cnnc(-c3ccccc3)c2)C1 [Example 678, (R)—N-(1-Acryloylpiperidin-3-yl)-4-oxo-5-(6-phenylpyridazin-4-yl)-4,5-dihydro-3H-1-thia-3,5,8-triazaacenaphthylene-2-carboxamide] | 7.3
C=CC(=O)N1CC[C@@H](NC(=O)c2sc3nccc4c3c2NC(=O)N4c2cnc(Oc3ccccc3)nc2)C1 [Example 748, (R)—N-(1-Acryloylpyrrolidin-3-yl)-4-oxo-5-(2-phenoxypyrimidin-5-yl)-4,5-dihydro-3H-1-thia-3,5,8-triazaacenaphthylene-2-carboxamide] | 6.8
Cc1cc(Oc2ccccc2)ccc1N1C(=O)Nc2c(C(=O)N[C@H]3CCCN(C(=O)/C(C#N)=C/C4CC4)C3)sc3nccc1c23 [Example 899, (S,E)-N-(1-(2-Cyano-3-cyclopropylacryloyl)piperidin-3-yl)-5-(2-methyl-4-phenoxyphenyl)-4-oxo-4,5-dihydro-3H-1-thia-3,5,8-triazaacenaphthylene-2-carboxamide] | 6.8
CNCC(=O)N1CC[C@@H](NC(=O)c2sc3nccc4c3c2NC(=O)N4c2cccc(-c3ccccc3)c2)C1 [Example 601, (R)-5-([1,1′-Biphenyl]-3-yl)-N-(1-(2-(methylamino)acetyl)pyrrolidin-3-yl)-4-oxo-4,5-dihydro-3H-1-thia-3,5,8-triazaacenaphthylene-2-carboxamide] | 6.4
COc1ccccc1Oc1ccc(N2C(=O)Nc3c(C(=O)NC4CCCN(C(=O)/C(C#N)=C/C(C)(C)C)C4)sc4nccc2c34)c(C)c1 (stereo not shown) [Example 896, (E)-N-(1-(2-Cyano-4,4-dimethylpent-2-enoyl)piperidin-3-yl)-5-(4-(2-methoxyphenoxy)-2-methylphenyl)-4-oxo-4,5-dihydro-3H-1-thia-3,5,8-triazaacenaphthylene-2-carboxamide] | 6.9
C=CC(=O)N1CCC[C@@H](NC(=O)c2sc3nccc4c3c2NC(=O)N4c2ccc(Oc3cccnc3)cc2)C1 [Example 774, (R)—N-(1-Acryloylpiperidin-3-yl)-4-oxo-5-(4-(pyridin-3-yloxy)phenyl)-4,5-dihydro-3H-1-thia-3,5,8-triazaacenaphthylene-2-carboxamide] | 7.9

same assay, conditions: Lanthascreen tracer competition, 60 minutes incubation; pIC50 = negative log of the IC50 in molar; read-out: BTK_I_binding pIC50 (converted)

SMILES | IC50 [nM]
CC(C)(C)OC(=O)N1C[C@H](O)C[C@@H](NC(=O)c2sc3nccc4c3c2NC(=O)N4c2ccc(Oc3ccccc3)cc2)C1 (single isomer, unassigned) [Example 611] | 631
Cc1cc(N2C(=O)Nc3c(C(=O)N[C@@H]4CCCNC4)sc4nccc2c34)cc(-c2ccccc2)n1 [Example 735, (R)-5-(2-Methyl-6-phenylpyridin-4-yl)-4-oxo-N-(piperidin-3-yl)-4,5-dihydro-3H-1-thia-3,5,8-triazaacenaphthylene-2-carboxamide] | > 1000

same assay, conditions: pIC50 = negative log of the IC50 in molar; 60 minutes incubation, 50 nM Tracer 236

SMILES | BTK_I_binding pIC50
C=CC(=O)N1CC[C@@H](NC(=O)c2sc3nccc4c3c2NC(=O)N4c2ccc(Oc3c(F)cccc3F)cc2C)C1 [Example 17, (R)—N-(1-Acryloylpyrrolidin-3-yl)-5-(4-(2,6-difluorophenoxy)-2-methylphenyl)-4-oxo-4,5-dihydro-3H-1-thia-3,5,8-triazaacenaphthylene-2-carboxamide] | 7.7
Cc1cc(Oc2ccccc2)ccc1N1C(=O)Nc2c(C(=O)NC3CCCN(C(=O)/C=C/CO)C3)sc3nccc1c23 (stereo in doubt) [Example 25, (S,E)-N-(1-(4-Hydroxybut-2-enoyl)piperidin-3-yl)-5-(2-methyl-4-phenoxyphenyl)-4-oxo-4,5-dihydro-3H-1-thia-3,5,8-triazaacenaphthylene-2-carboxamide] | 7.5
Cc1cccc(Oc2ccc(N3C(=O)Nc4c(C(=O)N[C@@H]5CCCN(C)C5)sc5nccc3c45)c(C)c2)c1 [Example 210, (R)-5-(2-Methyl-4-(m-tolyloxy)phenyl)-N-(1-methylpiperidin-3-yl)-4-oxo-4,5-dihydro-3H-1-thia-3,5,8-triazaacenaphthylene-2-carboxamide] | 6.7
Cc1cc(Oc2ccccc2)ccc1N1C(=O)Nc2c(C(=O)NC3CCCN(C#N)CC3)sc3nccc1c23 (stereo not shown) [Example 189, N-(1-Cyanoazepan-4-yl)-5-(2-methyl-4-phenoxyphenyl)-4-oxo-4,5-dihydro-3H-1-thia-3,5,8-triazaacenaphthylene-2-carboxamide] | 6.6
Cc1cc(Oc2ccccc2)ccc1N1C(=O)Nc2c(C(=O)N[C@@H]3CCCN(C(=O)[C@@H]4CCN(C)C4)C3)sc3nccc1c23 [Example 145, 5-(2-Methyl-4-phenoxyphenyl)-N—((R)-1-((R)-1-methylpyrrolidine-3-carbonyl)piperidin-3-yl)-4-oxo-4,5-dihydro-3H-1-thia-3,5,8-triazaacenaphthylene-2-carboxamide] | 7.0
O=C(N[C@@H]1CCCNC1)c1sc2nccc3c2c1NC(=O)N3c1ccc(Oc2ccccc2)cc1F [Example 107, (R)-5-(2-Fluoro-4-phenoxyphenyl)-4-oxo-N-(piperidin-3-yl)-4,5-dihydro-3H-1-thia-3,5,8-triazaacenaphthylene-2-carboxamide] | 7.5

same assay, conditions: pIC50 = negative log of the IC50 in molar; 60 minutes incubation, 50 nM Tracer 236; read-out: BTK_I_binding pIC50 (converted)

SMILES | IC50 [nM]
Cc1cc(Oc2ccccc2)ccc1N1C(=O)Nc2c(C(=O)N[C@@H]3CCCN(C(=O)/C=C/CN)C3)sc3nccc1c23 [Example 27, (R,E)-N-(1-(4-Aminobut-2-enoyl)piperidin-3-yl)-5-(2-methyl-4-phenoxyphenyl)-4-oxo-4,5-dihydro-3H-1-thia-3,5,8-triazaacenaphthylene-2-carboxamide] | 50.1

same assay, conditions: unphosphorylated-BTK kinase domain, 50 nM Tracer 236, 60 minutes; pIC50 = negative log of the IC50 in molar

SMILES | BTK_I_binding pIC50
C=CC(=O)N1CCC[C@@H](NC(=O)c2sc3nccc4c3c2NC(=O)N4c2cnc(Oc3ccccc3)cn2)C1 [Example 528, (R)—N-(1-Acryloylpiperidin-3-yl)-4-oxo-5-(5-phenoxypyrazin-2-yl)-4,5-dihydro-3H-1-thia-3,5,8-triazaacenaphthylene-2-carboxamide] | 7.8
C/C=C\C(=O)N1CCC[C@@H](NC(=O)c2sc3nccc4c3c2NC(=O)N4c2ccc(Oc3ccccc3)cc2C)C1 (single isomer, unassigned) [Example 476, (R,*Z)—N-(1-(But-2-enoyl)piperidin-3-yl)-5-(*S)-(2-methyl-4-phenoxyphenyl)-4-oxo-4,5-dihydro-3H-1-thia-3,5,8-triazaacenaphthylene-2-carboxamide] | 7.4
Cc1cc(Oc2ccccc2)ccc1N1C(=O)Nc2c(C(=O)NC3(CO)CCOCC3)sc3nccc1c23 [Example 437, N-(4-(Hydroxymethyl)tetrahydro-2H-pyran-4-yl)-5-(*R)-(2-methyl-4-phenoxyphenyl)-4-oxo-4,5-dihydro-3H-1-thia-3,5,8-triazaacenaphthylene-2-carboxamide] | 5.8
CC(C)=C(Cl)C(=O)N1CCC[C@@H](NC(=O)c2sc3nccc4c3c2NC(=O)N4c2ccc(Oc3ccccc3)cc2C)C1 (single isomer, unassigned) [Example 439, (R)—N-(1-(2-Chloro-3-methylbut-2-enoyl)piperidin-3-yl)-5-(*R)-(2-methyl-4-phenoxyphenyl)-4-oxo-4,5-dihydro-3H-1-thia-3,5,8-triazaacenaphthylene-2-carboxamide] | 5.7
C=CC(=O)N1CC[C@@H](NC(=O)c2sc3nccc4c3c2NC(=O)N4c2ccc(Oc3ccccc3)c(Cl)c2)C1 [Example 558, (R)—N-(1-Acryloylpyrrolidin-3-yl)-5-(3-chloro-4-phenoxyphenyl)-4-oxo-4,5-dihydro-3H-1-thia-3,5,8-triazaacenaphthylene-2-carboxamide] | 7.7
Cc1ccccc1-c1cccc(N2C(=O)Nc3c(C(=O)N[C@@H]4CCCNC4)sc4nccc2c34)c1 [Example 554, (R)-5-(2′-Methyl-[1,1′-biphenyl]-3-yl)-4-oxo-N-(piperidin-3-yl)-4,5-dihydro-3H-1-thia-3,5,8-triazaacenaphthylene-2-carboxamide] | 6.7
CN1CCC[C@@H](NC(=O)c2sc3nccc4c3c2NC(=O)N4c2cccc(-c3ccccc3)c2)C1 [Example 552, (R)-5-([1,1′-Biphenyl]-3-yl)-N-(1-methylpiperidin-3-yl)-4-oxo-4,5-dihydro-3H-1-thia-3,5,8-triazaacenaphthylene-2-carboxamide] | 6.8

same assay, conditions: unphosphorylated-BTK kinase domain, 50 nM Tracer 236, 60 minutes; pIC50 = negative log of the IC50 in molar; read-out: BTK_I_binding pIC50 (converted)

SMILES | IC50 [nM]
[2H]c1c([2H])c([2H])c(Oc2ccc(N3C(=O)Nc4c(C(=O)N[C@@H]5CCCN(C#N)C5)sc5nccc3c45)c(C)c2)c([2H])c1[2H] [Example 379, (R)—N-(1-Cyanopiperidin-3-yl)-5-(2-methyl-4-(2,3,4,5,6-pentadeuteriophenoxy)phenyl)-4-oxo-4,5-dihydro-3H-1-thia-3,5,8-triazaacenaphthylene-2-carboxamide] | 31.6

same assay, conditions: unphosphorylated-BTK kinase domain, 60 minutes incubation, 50 nM Tracer 236; pIC50 = negative log of the IC50 in molar

SMILES | BTK_I_binding pIC50
C=CC(=O)N1CCC(NC(=O)c2sc3nccc4c3c2NC(=O)N4c2ccc(Oc3ccccc3)cc2C)CC1 [Example 929, N-(1-Acryloylpiperidin-4-yl)-5-(2-methyl-4-phenoxyphenyl)-4-oxo-4,5-dihydro-3H-1-thia-3,5,8-triazaacenaphthylene-2-carboxamide] | 6.1
O=C(NC1CCCN(C(=O)CCCl)C1)c1sc2nccc3c2c1NC(=O)N3c1ccc(Oc2ccccc2)cn1 (stereo in doubt) [Example 906, (R)—N-(1-(3-Chloropropanoyl)piperidin-3-yl)-4-oxo-5-(5-phenoxypyridin-2-yl)-4,5-dihydro-3H-1-thia-3,5,8-triazaacenaphthylene-2-carboxamide] | 6.7
